According to ChEMBL document CHEMBL1932997, “Identification of oxazolidinediones and thiazolidinediones as potent 17β-hydroxysteroid dehydrogenase type 3 inhibitors” (Bioorg Med Chem Lett, 2012):
Active and inactive are the calls of the source. The calls are words filed in the database; no cut-off is given here.

Assays:
[1] = molecular target: T1, 17-beta-hydroxysteroid dehydrogenase type 3 (Homo sapiens, UniProt P37058); assay: Inhibition of human 17beta-HSD3 expressed in HeLa cells assessed as conversion of 4-androstene-3,17-dione to testosterone; assay type: cell-based
T1 sequence (P37058 whole entry): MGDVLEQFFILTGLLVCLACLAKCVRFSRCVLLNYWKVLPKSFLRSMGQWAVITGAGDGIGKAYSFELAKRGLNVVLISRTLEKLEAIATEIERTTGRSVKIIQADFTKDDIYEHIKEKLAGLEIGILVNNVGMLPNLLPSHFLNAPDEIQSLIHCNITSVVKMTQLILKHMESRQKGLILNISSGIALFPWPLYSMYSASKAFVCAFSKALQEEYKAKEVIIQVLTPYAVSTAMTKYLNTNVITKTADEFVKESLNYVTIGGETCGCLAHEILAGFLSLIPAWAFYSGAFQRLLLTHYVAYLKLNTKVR

[2] = molecular target: T1, 17-beta-hydroxysteroid dehydrogenase type 3; assay: Inhibition of 17beta-HSD3 in human testes homogenate; assay type: tissue-based, Testis
[3] = molecular target: T2, 17-beta-hydroxysteroid dehydrogenase type 3 (Mus musculus, UniProt P70385); assay: Inhibition of 17beta-HSD3 in mouse testes homogenate; assay type: tissue-based, Testis
T2 sequence (P70385 whole entry): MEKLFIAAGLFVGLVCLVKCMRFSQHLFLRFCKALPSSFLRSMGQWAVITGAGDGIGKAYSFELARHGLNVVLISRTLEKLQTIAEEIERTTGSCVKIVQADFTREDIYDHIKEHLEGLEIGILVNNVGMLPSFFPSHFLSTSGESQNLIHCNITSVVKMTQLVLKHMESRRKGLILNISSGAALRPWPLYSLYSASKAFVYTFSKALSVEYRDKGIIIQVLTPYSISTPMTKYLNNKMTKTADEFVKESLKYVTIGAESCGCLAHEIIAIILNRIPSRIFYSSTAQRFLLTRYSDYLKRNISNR

[4] = Inhibition of 17beta-HSD3 in marmoset testes homogenate; assay type: tissue-based, Callitrichinae sp., Testis
[5] = molecular target: T3, 17-beta-hydroxysteroid dehydrogenase type 1 (Homo sapiens) (UniProt P14061); assay: Inhibition of 17beta-HSD1 expressed in HeLa cells assessed as conversion of estrone into estradiol; assay type: cell-based
T3 sequence (whole entry): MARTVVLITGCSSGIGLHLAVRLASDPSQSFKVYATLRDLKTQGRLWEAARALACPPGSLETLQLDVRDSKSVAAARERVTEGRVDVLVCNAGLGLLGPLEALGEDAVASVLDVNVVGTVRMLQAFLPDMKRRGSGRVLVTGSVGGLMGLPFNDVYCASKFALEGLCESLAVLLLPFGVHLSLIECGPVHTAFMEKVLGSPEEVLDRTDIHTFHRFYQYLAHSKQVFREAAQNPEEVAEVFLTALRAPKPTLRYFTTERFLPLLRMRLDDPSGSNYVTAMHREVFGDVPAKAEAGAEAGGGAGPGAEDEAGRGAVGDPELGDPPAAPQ

[6] = molecular target: T4, 17-beta-hydroxysteroid dehydrogenase type 2 (Homo sapiens) (UniProt P37059); assay: Inhibition of 17beta-HSD2 expressed in HeLa cells assessed as conversion of estrone into estradiol; assay type: cell-based
T4 sequence (whole entry): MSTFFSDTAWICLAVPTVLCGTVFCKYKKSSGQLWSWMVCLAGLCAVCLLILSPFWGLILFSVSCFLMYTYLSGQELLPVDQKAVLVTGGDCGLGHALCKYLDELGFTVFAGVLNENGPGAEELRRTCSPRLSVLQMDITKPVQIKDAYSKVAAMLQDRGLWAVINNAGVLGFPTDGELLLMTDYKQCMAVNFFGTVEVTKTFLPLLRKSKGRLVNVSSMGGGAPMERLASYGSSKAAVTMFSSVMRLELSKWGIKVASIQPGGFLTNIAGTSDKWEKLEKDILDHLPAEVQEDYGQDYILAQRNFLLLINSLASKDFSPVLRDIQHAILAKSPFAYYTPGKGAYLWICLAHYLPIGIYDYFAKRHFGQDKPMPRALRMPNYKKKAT

[7] = molecular target: T5, Androgen receptor (Homo sapiens) (UniProt P10275); assay: Agonist activity at androgen receptor by transcriptional reporter gene assay; assay type: functional
T5 sequence (whole entry): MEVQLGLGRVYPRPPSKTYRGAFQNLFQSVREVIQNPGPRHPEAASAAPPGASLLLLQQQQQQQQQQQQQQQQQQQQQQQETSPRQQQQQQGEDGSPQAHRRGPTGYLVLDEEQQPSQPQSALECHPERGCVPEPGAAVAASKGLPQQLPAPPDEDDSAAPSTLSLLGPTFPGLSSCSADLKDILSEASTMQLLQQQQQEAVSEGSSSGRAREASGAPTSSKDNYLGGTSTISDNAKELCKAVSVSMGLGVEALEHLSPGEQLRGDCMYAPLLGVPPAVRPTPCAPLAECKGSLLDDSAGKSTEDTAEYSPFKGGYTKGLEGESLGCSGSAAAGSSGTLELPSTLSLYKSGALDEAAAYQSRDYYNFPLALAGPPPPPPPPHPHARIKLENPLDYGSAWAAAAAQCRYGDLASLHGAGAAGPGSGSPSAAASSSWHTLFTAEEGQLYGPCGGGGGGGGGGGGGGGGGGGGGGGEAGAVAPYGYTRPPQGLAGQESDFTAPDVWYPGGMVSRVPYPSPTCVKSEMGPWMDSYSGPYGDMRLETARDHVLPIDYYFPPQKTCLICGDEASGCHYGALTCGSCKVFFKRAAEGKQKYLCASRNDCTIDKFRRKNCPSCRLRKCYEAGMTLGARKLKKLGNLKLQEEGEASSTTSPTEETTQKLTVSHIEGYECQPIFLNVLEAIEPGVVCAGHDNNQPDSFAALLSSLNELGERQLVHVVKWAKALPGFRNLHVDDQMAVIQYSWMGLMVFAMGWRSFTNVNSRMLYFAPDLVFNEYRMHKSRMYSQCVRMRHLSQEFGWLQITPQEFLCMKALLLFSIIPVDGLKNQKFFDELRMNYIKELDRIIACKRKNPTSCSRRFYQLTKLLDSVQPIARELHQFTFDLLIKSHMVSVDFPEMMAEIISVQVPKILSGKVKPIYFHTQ

[8] = molecular target: T5, Androgen receptor (Homo sapiens); assay: Antagonist activity at androgen receptor by transcriptional reporter gene assay; assay type: functional
[9] = molecular target: T6, Estrogen receptor (Homo sapiens) (UniProt P03372); assay: Agonist activity at ERalpha by transcriptional reporter gene assay; assay type: functional
T6 sequence (whole entry): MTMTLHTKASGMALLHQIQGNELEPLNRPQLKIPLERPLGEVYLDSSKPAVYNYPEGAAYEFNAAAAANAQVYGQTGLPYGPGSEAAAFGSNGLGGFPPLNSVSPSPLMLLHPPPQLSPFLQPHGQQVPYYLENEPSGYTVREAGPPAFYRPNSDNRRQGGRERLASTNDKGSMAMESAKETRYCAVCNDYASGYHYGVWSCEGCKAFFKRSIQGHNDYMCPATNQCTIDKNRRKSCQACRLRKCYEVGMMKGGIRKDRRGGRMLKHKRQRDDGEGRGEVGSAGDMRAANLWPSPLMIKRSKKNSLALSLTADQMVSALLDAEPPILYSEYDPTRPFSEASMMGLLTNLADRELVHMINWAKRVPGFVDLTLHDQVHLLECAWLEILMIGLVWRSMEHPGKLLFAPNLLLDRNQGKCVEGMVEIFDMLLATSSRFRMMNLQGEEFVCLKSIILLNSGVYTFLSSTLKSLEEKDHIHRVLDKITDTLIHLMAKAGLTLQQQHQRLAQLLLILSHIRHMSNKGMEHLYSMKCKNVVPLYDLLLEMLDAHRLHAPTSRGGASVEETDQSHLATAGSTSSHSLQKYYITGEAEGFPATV

[10] = molecular target: T6, Estrogen receptor (Homo sapiens); assay: Antagonist activity at ERalpha by transcriptional reporter gene assay; assay type: functional
[11] = molecular target: T7, Glucocorticoid receptor (Homo sapiens) (UniProt P04150); assay: Agonist activity at glucocorticoid receptor by transcriptional reporter gene assay; assay type: functional
T7 sequence (whole entry): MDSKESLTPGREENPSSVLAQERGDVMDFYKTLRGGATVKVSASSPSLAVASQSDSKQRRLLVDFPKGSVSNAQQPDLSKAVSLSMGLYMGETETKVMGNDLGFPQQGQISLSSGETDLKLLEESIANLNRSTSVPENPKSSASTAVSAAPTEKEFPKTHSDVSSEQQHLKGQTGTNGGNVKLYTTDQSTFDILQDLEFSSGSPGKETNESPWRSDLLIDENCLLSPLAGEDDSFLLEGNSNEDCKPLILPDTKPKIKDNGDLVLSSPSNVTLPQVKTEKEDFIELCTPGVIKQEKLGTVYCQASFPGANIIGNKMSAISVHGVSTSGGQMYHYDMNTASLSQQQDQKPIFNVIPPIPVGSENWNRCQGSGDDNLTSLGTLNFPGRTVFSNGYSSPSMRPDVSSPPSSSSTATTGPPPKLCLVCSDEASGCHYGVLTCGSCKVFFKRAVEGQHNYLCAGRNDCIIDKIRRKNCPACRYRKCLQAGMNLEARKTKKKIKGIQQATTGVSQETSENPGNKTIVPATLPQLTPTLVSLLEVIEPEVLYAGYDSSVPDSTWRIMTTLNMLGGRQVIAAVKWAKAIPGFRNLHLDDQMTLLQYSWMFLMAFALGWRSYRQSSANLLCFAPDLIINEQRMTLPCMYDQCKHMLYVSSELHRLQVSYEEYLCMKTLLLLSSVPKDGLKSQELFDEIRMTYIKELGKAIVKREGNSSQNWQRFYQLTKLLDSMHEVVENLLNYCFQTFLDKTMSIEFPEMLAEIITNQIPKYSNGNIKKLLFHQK

[12] = molecular target: T7, Glucocorticoid receptor (Homo sapiens); assay: Antagonist activity at glucocorticoid receptor by transcriptional reporter gene assay; assay type: functional
[13] = molecular target: T8, 17-beta-hydroxysteroid dehydrogenase type 3 (Homo sapiens) (UniProt P37058); settings: HeLa, 10 uM
T8 sequence (whole entry): T1 sequence (P37058 whole entry)
Description: Inhibition of human 17beta-HSD3 activity expressed in HeLa cells assessed as conversion of 4-androstene-3,17-dione to testosterone at 10 uM

Work on COc1ccc(N2C(=O)OC(Cc3ccc(O)c(Br)c3)C2=O)cc1 (configuration not stated) yielded an IC50 ([1]; read-out: IC50) of 300 nM.
Work on COc1ccc(-n2cc(Cc3ccc(O)c(Br)c3)sc2=O)cc1 yielded an IC50 ([1]; read-out: IC50) of 570 nM.
Molecule COc1ccc(N2C(=O)S/C(=C\c3ccc(O)c(Br)c3)C2=O)cc1 has an IC50 ([1]; read-out: IC50) of 90 nM.
Molecule COc1ccc(N2C(=O)O/C(=C\c3ccc(O)c(Br)c3)C2=O)cc1 has an IC50 ([1]; read-out: IC50) of 23 nM.
Molecule COc1ccc(N2C(=O)/C(=C/c3ccc(O)c(Br)c3)OC2=S)cc1 has an IC50 ([1]; read-out: IC50) of 13 nM.
With COc1ccc(N2C(=O)N/C(=C\c3ccc(O)c(Br)c3)C2=O)cc1 the IC50 ([1]; hela) was “Not Active”.
COc1ccc(N2C/C(=C/c3ccc(O)c(Br)c3)OC2=O)cc1 gave an IC50 ([1]; read-out: IC50) of 670 nM.
In the case of COc1ccc(N2C(=O)/C(=C/c3ccc(O)c(Br)c3)N(C)C2=O)cc1, the IC50 ([1]; hela) is reported as “Not Active”.
COc1ccc(N2C(=O)/C(=C/c3ccc(O)c(Br)c3)SC2=S)cc1 gave an IC50 ([1]; read-out: IC50) of 14 nM, an IC50 [2] of 6 nM and an IC50 [3] of 40 nM. The IC50 [4] was 0.6 nM, the inhibition [5] was “inactive” and the inhibition [6] was “inactive”. The Activity [7] was “inactive”, the Activity [8] was “inactive” and the Activity [9] was “inactive”. For the same molecule, the Activity [10] was “inactive”, the Activity [11] was “inactive” and the Activity [12] was “inactive”. The inhibition [13] was 23%.
Molecule COc1ccc(-n2cnn(Cc3ccc(O)c(Br)c3)c2=O)cc1 has an IC50 ([1]; read-out: IC50) of 5700 nM.
